Source: ChEMBL document CHEMBL1201862, “PubChem BioAssay data set” (2004)
The source made the active and inactive calls.

Tests used:
[1] = Luminescence Cell-Based Dose Confirmation HTS to Identify Activators of 5'UTR Stem-Loop Driven Alpha-Synuclein mRNA Translation in H4 Neuroglioblastoma Cells. [Related pubchem assays: 1829 (Project Summary), 1814 (Primary HTS)]; format: functional
[2] = Luminescence Cell-Based Dose Response HTS to Identify Activators of Luciferase Translation or Activity in H4 […] Cells. [Related pubchem assays: 1829 (Project Summary), 1814 (Primary HTS)]; format: functional
[3] = test system: H4; assay: Luminescence Cell-Based Dose Response HTS to Identify Activators of 5'UTR Stem-Loop Driven Prion Protein mRNA Translation in H4 Neuroglioblastoma Cells. [Related pubchem assays: 1829 (Project Summary), 1814 (Primary HTS)]; format: functional; conditions: Homo sapiens
[4] = test system: HeLa; assay: HeLa cell cytotoxicity, dose response, cytotoxicity control for MITF activator project, CellTiter-Glo luminescence, cherry-pick samples (AID 540259); format: functional, cell-based; conditions: Homo sapiens
[5] = molecular target: Induced myeloid leukemia cell differentiation protein Mcl-1 (Homo sapiens, UniProt Q07820); format: functional
Sequence of Induced myeloid leukemia cell differentiation protein Mcl-1 (Q07820 whole entry): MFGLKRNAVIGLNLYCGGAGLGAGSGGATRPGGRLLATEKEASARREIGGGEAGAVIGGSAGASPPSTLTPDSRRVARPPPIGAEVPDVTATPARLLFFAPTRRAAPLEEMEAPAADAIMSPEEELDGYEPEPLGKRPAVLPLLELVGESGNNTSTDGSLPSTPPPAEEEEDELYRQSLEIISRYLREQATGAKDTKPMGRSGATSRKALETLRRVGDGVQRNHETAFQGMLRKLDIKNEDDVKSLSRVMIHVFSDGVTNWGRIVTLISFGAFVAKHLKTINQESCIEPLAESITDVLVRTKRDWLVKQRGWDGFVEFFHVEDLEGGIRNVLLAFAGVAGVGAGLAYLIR

[6] = molecular target: Eukaryotic translation initiation factor 4E (Mus musculus, UniProt P63073); assay: eIF4E–eIF4G protein interaction inhibitors, dose response, biochemical, TR-FRET (AID 855); format: functional;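 also: potency for disrupting eIF4E binding to eIF4GI seen as loss of FRET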
Sequence of Eukaryotic translation initiation factor 4E (P63073 whole entry): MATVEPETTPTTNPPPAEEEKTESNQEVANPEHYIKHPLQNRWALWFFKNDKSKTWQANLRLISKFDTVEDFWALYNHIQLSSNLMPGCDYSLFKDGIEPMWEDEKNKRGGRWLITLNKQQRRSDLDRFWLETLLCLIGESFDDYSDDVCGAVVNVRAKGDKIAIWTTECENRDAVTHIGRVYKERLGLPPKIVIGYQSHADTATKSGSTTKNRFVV

[7] = molecular target: T1, Hexokinase HKDC1 (Homo sapiens, UniProt Q2TB90); assay: HKDC1 hexokinase inhibitors, dose response, biochemical, W721R variant (AID 504729); format: functional
T1 sequence (Q2TB90 whole entry): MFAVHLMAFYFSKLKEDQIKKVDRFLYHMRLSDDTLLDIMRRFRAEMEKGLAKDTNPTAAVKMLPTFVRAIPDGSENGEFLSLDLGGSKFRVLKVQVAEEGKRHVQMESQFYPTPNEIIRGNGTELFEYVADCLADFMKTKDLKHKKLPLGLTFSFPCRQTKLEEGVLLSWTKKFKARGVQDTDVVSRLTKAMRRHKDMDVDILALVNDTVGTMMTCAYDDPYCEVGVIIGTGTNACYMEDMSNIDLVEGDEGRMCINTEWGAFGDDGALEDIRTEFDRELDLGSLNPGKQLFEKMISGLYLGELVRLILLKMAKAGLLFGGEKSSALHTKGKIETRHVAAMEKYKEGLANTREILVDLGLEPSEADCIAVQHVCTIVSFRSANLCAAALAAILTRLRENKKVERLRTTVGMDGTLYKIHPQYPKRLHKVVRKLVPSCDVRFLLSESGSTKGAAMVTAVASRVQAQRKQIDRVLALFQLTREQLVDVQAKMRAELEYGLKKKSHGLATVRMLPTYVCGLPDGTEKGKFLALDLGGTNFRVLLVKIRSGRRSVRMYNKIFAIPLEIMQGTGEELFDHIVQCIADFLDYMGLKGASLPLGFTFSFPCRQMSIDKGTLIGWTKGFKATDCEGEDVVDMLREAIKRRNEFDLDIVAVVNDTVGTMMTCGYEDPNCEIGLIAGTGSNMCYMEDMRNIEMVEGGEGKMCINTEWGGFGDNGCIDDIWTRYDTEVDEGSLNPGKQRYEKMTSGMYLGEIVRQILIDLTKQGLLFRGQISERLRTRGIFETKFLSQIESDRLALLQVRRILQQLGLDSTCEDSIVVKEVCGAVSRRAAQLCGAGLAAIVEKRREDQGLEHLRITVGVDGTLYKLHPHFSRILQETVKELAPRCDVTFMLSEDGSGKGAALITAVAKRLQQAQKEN

[8] = molecular target: T2, Lysine-specific demethylase 4C (Homo sapiens, UniProt Q9H3R0); assay: GASC-1 (JMJD2C) histone demethylase inhibitors, dose response, biochemical, DELFIA europium, cherry-picked samples (AID 488835); format: functional
T2 sequence (Q9H3R0 whole entry): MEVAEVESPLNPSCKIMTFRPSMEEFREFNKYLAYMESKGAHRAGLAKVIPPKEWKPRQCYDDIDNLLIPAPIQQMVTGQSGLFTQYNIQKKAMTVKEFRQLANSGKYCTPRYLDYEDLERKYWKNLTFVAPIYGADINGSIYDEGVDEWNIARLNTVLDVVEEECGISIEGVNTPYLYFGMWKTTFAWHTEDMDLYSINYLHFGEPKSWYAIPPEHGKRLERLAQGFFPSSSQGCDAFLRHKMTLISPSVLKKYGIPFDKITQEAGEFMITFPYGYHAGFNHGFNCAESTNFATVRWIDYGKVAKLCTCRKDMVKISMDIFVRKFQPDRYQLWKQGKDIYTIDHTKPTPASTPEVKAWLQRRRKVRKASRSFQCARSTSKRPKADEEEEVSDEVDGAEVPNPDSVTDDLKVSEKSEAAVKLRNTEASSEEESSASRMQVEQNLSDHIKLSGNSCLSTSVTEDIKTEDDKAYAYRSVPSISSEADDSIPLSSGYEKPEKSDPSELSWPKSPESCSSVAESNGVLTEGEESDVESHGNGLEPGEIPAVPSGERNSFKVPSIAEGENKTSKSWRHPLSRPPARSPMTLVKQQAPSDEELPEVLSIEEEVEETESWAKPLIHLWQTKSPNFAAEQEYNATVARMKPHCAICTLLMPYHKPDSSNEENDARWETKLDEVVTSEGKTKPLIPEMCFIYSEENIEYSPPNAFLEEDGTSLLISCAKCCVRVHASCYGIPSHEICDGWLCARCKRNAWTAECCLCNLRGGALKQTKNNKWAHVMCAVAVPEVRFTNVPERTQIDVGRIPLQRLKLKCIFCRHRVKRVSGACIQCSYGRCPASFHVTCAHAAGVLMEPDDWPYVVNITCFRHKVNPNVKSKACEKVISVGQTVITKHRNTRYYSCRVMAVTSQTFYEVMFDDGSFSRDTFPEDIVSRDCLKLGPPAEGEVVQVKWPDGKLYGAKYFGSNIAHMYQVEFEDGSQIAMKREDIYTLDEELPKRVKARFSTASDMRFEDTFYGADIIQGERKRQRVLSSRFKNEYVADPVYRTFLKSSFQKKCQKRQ

[9] = molecular target: Hexokinase-1 (Homo sapiens, UniProt P19367); assay: SAR analysis of small molecule inhibitors of hexokinase domain containing I (HKDC1) in the hexokinase 1 selectivity assay. [Related pubchem assays (depositor defined):AID493160, AID493190]; format: functional
Sequence of Hexokinase-1 (P19367 whole entry, the tested form may be a part): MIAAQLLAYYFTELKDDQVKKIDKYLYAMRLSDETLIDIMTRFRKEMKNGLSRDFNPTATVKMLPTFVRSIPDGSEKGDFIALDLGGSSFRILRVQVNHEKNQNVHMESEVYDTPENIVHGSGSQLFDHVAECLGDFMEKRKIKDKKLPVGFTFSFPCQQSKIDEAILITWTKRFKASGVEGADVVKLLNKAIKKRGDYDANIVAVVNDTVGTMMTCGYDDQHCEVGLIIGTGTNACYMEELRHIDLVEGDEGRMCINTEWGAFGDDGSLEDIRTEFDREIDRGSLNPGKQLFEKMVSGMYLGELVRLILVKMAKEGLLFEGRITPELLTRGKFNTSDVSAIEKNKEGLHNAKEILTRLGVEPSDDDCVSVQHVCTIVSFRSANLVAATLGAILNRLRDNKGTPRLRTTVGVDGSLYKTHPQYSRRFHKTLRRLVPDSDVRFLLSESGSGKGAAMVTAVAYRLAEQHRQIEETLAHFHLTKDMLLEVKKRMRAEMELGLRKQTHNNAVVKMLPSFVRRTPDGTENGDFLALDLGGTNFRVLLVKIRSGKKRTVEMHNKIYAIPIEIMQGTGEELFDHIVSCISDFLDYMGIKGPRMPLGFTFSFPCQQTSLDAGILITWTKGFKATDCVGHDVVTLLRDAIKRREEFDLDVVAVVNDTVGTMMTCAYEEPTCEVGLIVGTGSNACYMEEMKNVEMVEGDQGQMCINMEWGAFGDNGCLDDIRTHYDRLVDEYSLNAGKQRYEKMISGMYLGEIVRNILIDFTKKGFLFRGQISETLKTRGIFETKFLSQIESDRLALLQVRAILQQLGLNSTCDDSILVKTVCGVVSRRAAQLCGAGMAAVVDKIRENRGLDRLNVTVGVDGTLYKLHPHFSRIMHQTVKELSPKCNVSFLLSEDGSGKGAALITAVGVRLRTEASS

[10] = test system: INS1; assay: beta cell apoptosis inhibitors, cytokine rescue, dose response, luminescence, retest (AID 449756); format: functional, cell-based; conditions: Rattus norvegicus;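 also: cell death triggered by IL-1 beta plus TNF-alpha plus IFN-gamma mixture; protective hits raise ATP signal compared with cytokine alone wells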
[11] = molecular target: T1, Hexokinase HKDC1; assay: SAR analysis of small molecule inhibitors of hexokinase domain containing I (HKDC1). [Related pubchem assays (depositor defined):AID493160, AID493190]; format: functional
[12] = molecular target: Beta-galactosidase (Escherichia coli, UniProt Q8VNN2); assay: PubChem AID 485352; format: functional
Sequence of Beta-galactosidase (Q8VNN2 whole entry): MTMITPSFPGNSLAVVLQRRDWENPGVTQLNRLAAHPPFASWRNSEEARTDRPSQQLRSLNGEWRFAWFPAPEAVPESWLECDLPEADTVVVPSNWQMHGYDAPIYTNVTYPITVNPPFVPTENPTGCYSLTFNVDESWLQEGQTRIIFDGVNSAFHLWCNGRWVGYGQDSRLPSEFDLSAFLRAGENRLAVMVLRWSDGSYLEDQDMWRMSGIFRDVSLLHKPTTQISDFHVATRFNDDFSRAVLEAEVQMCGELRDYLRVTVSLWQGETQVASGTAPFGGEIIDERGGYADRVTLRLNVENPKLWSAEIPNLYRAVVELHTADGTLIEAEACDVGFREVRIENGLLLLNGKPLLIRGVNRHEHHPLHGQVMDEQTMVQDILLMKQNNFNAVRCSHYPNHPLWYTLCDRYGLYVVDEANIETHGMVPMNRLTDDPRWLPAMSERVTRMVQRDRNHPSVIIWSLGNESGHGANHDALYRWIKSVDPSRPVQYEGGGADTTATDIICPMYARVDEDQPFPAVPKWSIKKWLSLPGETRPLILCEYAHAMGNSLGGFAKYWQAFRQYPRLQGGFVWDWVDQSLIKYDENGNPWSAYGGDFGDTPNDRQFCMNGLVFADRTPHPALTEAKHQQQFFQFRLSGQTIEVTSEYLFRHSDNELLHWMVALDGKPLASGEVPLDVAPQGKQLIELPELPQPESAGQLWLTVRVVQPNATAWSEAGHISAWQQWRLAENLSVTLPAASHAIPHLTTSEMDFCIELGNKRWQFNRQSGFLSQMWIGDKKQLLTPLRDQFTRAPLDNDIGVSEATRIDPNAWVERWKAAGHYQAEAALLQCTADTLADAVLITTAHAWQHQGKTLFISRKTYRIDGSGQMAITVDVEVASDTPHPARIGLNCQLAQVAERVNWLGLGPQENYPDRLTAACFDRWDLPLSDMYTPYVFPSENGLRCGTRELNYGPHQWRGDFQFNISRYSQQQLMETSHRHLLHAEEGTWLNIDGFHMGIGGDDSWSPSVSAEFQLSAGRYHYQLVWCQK

[13] = molecular target: Type-1 angiotensin II receptor (Homo sapiens, UniProt P30556); assay: AT1 receptor antagonists, dose response, selectivity assay for APJ receptor antagonist project, cell-based, uHTS hits (AID 463214); format: functional;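 also: antagonist potency against angiotensin II stimulated AT1 response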
Sequence of Type-1 angiotensin II receptor (P30556 whole entry): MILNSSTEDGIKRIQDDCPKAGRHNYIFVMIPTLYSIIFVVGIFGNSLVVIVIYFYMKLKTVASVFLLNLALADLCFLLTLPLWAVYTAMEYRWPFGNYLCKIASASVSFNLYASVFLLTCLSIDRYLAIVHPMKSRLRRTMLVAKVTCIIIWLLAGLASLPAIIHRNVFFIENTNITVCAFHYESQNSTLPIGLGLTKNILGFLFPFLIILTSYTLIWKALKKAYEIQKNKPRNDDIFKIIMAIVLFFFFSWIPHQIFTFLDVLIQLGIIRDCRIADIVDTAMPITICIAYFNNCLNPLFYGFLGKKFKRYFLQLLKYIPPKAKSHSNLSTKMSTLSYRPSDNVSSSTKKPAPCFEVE

[14] = molecular target: Dual specificity tyrosine-phosphorylation-regulated kinase 1A (Rattus norvegicus, UniProt Q63470); format: biochemical, Homo sapiens
[15] = molecular target: Dual specificity protein kinase CLK1 (Homo sapiens, UniProt P49759); assay: CLK1 kinase inhibitors, off-target check, dose response, selectivity assay for Dyrk1A inhibitor project, biochemical, cherry-picked samples (AID 588811)
Sequence of Dual specificity protein kinase CLK1 (P49759 whole entry): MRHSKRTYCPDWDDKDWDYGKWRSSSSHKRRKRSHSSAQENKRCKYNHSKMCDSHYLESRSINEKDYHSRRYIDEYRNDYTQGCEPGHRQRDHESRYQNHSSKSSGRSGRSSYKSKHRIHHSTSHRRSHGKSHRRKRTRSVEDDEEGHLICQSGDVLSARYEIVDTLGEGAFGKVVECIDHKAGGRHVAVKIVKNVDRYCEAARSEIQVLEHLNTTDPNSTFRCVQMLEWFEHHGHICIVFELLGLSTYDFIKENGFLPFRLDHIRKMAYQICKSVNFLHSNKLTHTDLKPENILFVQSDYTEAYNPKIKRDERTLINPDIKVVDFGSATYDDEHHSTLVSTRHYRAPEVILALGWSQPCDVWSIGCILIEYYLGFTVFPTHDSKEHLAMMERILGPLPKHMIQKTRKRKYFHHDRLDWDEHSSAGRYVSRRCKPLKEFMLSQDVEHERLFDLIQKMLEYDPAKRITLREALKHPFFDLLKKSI

[16] = molecular target: Beta-2 adrenergic receptor (Homo sapiens, UniProt P07550); assay: beta2AR agonists driving receptor internalization, dose response, cell-based, FAP fluorogen, flow cytometry, cherry pick 1 (AID 588763); format: functional
Sequence of Beta-2 adrenergic receptor (P07550 whole entry): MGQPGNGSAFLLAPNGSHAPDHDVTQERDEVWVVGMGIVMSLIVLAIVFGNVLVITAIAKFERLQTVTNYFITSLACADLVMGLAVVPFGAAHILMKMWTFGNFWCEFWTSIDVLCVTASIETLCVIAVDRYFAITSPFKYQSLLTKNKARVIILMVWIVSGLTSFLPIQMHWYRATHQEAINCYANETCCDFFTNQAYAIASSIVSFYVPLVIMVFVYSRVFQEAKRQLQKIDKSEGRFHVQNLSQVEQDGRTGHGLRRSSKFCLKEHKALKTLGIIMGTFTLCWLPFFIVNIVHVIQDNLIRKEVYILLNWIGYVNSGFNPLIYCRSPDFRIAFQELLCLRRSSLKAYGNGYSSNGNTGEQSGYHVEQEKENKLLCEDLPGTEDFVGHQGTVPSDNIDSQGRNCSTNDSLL

SMILES: COC(=O)c1ccc(N2CCN(c3ccccc3)CC2)nc1
- EC50 [1]: > 120 µM (not active)
- EC50 [2]: > 120 µM (not active)
- EC50 [3]: 0.114 µM (active)
- AC50 [4]: 53.8 µM (active)

SMILES: Cc1ccc(C)c(S(=O)(=O)Nc2cc(SCC(=O)O)c(O)c3ccccc23)c1
- IC50 [5]: 13.8 µM (active)
- IC50 [6]: > 64 µM (inactive)
- IC50 [7]: 2.96 µM (active)
- AC50 [8]: 4.94 µM (active)
- IC50 [9]: > 80 µM (inactive)
- AC50 [10]: 4.28 µM (active)
- IC50 [11]: 10.2 µM (active)

SMILES: O=C(CCC(=O)OCC(=O)c1cccc([N+](=O)[O-])c1)NC1CCCCC1
- EC50 [12]: > 40 µM (inactive)
- IC50 [13]: 25.2 µM (not active)

SMILES: O=C(Nc1ccc2c[nH]nc2c1)c1ccccc1F
- EC50 [3]: > 120 µM (not active)
- AC50 [14]: 20.8 µM (active)

SMILES: Cc1nc(CNc2ncnc3ccc(-c4ccc5c(c4)OCO5)cc23)cs1
- AC50 [15]: 0.0354 µM (active)

SMILES: Cc1ccc(OCc2nnc(SCc3nc4ccccc4[nH]3)n2Cc2ccco2)cc1
- EC50 [16]: 1.08 µM (active)
